Columns and labels:
Test in all cases: relative viability (nuclei count vs DMSO), 5 days (fraction); higher = more cells survive
[1] = compound: COc1cc2c(Oc3ccc4[nH]c(C)cc4c3F)ncnc2cc1OCCCN1CCCC1 [Cediranib]
In short: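 For viability, nuclei in each treated well were divided by nuclei in vehicle wells and the median across plates was taken. Lung cancer cell lines in 1536-well plates were pinned with five library-drug doses (not always all listed) spaced by √10, cultured 5 days without medium change, and imaged at 4× after Hoechst staining, with plates passing only at control CV below 25% and at least one doubling.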

[2] = compound: O=C(C[C@H]1NCCC[C@@H]1O)Cn1cnc2cc(Br)c(Cl)cc2c1=O (racemic) [Halofuginone] + NC(=O)Nc1cc(-c2cccc(F)c2)sc1C(=O)N[C@H]1CCCNC1 [AZD7762] (partner 0.2 µM)
In short: (§1)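 For relative viability, nuclei counts in treated wells were divided by those in vehicle wells. Lung cancer cell lines had been pin-tool dosed in 1536-well plates the day after seeding and cultured for 5 days, then fixed and stained in one step (final 0.05% Triton X-100, 1% formaldehyde, 1 ug/ml Hoechst) and imaged at 4×. Doses were one drug alone or a fixed anchor-drug dose plus five library-drug doses (not always all listed) in √10 steps, and values are duplicate-plate medians.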

[3] = compound: Nc1ncn([C@H]2C[C@H](O)[C@@H](CO)O2)c(=O)n1 [Decitabine] + C[C@]1(O)C[C@@H](c2nc(-c3ccc4ccc(-c5ccccc5)nc4c3)c3c(N)nccn32)C1 [Linsitinib] (partner 1 µM)
In short: as §1

[4] = compound: Nc1ncn([C@H]2C[C@H](O)[C@@H](CO)O2)c(=O)n1 [Decitabine] + CS(=O)(=O)N1CCN(Cc2cc3nc(-c4cccc5[nH]ncc45)nc(N4CCOCC4)c3s2)CC1 [Pictilisib] (partner 1 µM)
In short: as §1

Row | Cell Line | relative viability ([1]; 0.04 µM) | relative viability ([1]; 0.4 µM) | relative viability ([1]; 1.265 µM) | relative viability ([1]; 4 µM) | relative viability ([2]; first compound 0.001 µM) | relative viability ([2]; first compound 0.003162 µM) | relative viability ([2]; first compound 0.01 µM) | relative viability ([2]; first compound 0.03162 µM) | relative viability ([2]; first compound 0.1 µM) | relative viability ([3]; first compound 0.1265 µM) | relative viability ([3]; first compound 0.4 µM) | relative viability ([3]; first compound 1.265 µM) | relative viability ([3]; first compound 4 µM) | relative viability ([4]; first compound 0.04 µM) | relative viability ([4]; first compound 0.1265 µM) | relative viability ([4]; first compound 0.4 µM) | relative viability ([4]; first compound 1.265 µM) | relative viability ([4]; first compound 4 µM) | relative viability ([1]; 0.1265 µM) | relative viability ([3]; first compound 0.04 µM)
1 | HCC-827 | 1.19 | 1.02 | 1.04 | 1.03 | 0.242 | 0.183 | 0.217 | 0.2 | 0.253 | 0.501 | 0.396 | 0.324 | 0.93 | 0.511 | 0.63 | 0.618 | 0.505 | 0.62 | – | –
2 | NCI-H322M | 0.929 | 0.871 | 0.819 | 1.02 | 0.517 | 0.708 | 0.526 | 0.614 | 0.426 | 0.844 | 0.737 | 0.497 | 0.472 | 0.408 | 0.537 | 0.53 | 0.397 | 0.424 | 1.18 | 0.773
3 | ChaGo-K-1 | 0.965 | 0.952 | 1.1 | 0.997 | 0.869 | 0.839 | 0.854 | 0.874 | 0.885 | – | – | – | – | 0.552 | 0.705 | 0.446 | 0.509 | 0.492 | 0.733 | –
4 | BEN | 1.07 | 0.903 | 0.758 | 0.931 | 0.851 | 0.685 | 0.844 | 0.654 | 0.418 | 0.809 | 0.671 | 0.46 | 0.43 | 0.545 | 0.543 | 0.396 | 0.349 | 0.324 | 0.643 | 0.994
5 | NCI-H2347 | 1.02 | 0.983 | 1.02 | 1.11 | 0.673 | 0.745 | 0.681 | 0.822 | 0.538 | 0.935 | 0.725 | 0.639 | 0.625 | 0.59 | 0.599 | 0.63 | 0.495 | 0.554 | 0.84 | 0.936
6 | LOU-NH91 | 0.967 | 0.932 | 0.878 | 0.958 | 0.793 | 0.735 | 0.767 | 0.691 | 0.664 | 0.839 | 0.779 | 0.693 | 0.735 | 0.518 | 0.478 | 0.517 | 0.518 | 0.495 | 1.15 | 0.575
7 | HCC-366 | 1.1 | 0.993 | 1.02 | 1 | 0.282 | 0.321 | 0.323 | 0.336 | 0.317 | 0.743 | 0.339 | 0.14 | 0.111 | 0.221 | 0.221 | 0.229 | 0.11 | 0.0886 | 1.02 | 0.535
8 | NCI-H2405 | 0.999 | 0.994 | 1 | 1.02 | 0.79 | 0.881 | 0.674 | 0.678 | 0.541 | 0.891 | 0.74 | 0.548 | 0.465 | 0.457 | 0.453 | 0.562 | 0.406 | 0.298 | 0.914 | 0.838
9 | 201T | 1.04 | 0.911 | 0.956 | 0.974 | 0.634 | 0.634 | 0.589 | 0.711 | 0.8 | 1.16 | 1.3 | 1.1 | 0.924 | 0.655 | 0.817 | 0.93 | 0.695 | 0.531 | 1.1 | 1.06
10 | CAL-12T | 1 | 0.937 | 1.01 | 1.01 | 0.642 | 0.688 | 0.584 | 0.695 | 0.695 | 0.805 | 0.494 | 0.451 | 0.347 | 0.299 | 0.499 | 0.332 | 0.339 | 0.301 | 0.974 | 0.657
11 | HCC-44 | 0.996 | 0.945 | 0.959 | 0.983 | 1.06 | 1.01 | 1.02 | 1.03 | 1.05 | 0.644 | 0.495 | 0.292 | 0.351 | 0.537 | 0.71 | 0.353 | 0.412 | 0.372 | – | 0.686
12 | NCI-H358 | 0.945 | 0.893 | 0.9 | 0.899 | 0.496 | 0.492 | 0.447 | 0.246 | 0.149 | 0.822 | 0.521 | 0.272 | 0.293 | 0.315 | 0.335 | 0.352 | 0.313 | 0.25 | 1.13 | 0.87
13 | NCI-H2087 | 1.09 | 0.776 | 1.14 | 1.27 | 1.42 | 1.48 | 1.33 | 1.48 | 1.01 | 0.678 | 0.591 | 0.41 | 0.384 | 0.762 | 0.779 | 0.519 | 0.404 | 0.336 | 1.18 | 0.659
14 | LCLC-97TM1 | 1.04 | 0.941 | 0.949 | 0.984 | 0.33 | 0.18 | 0.211 | 0.22 | 0.237 | 0.199 | 0.166 | 0.116 | 0.213 | 0.145 | 0.166 | 0.0979 | 0.105 | 0.117 | – | 0.183
15 | NCI-H1993 | 0.73 | 0.857 | 0.726 | 0.87 | 0.733 | 0.421 | 0.787 | 1.11 | 0.586 | 0.745 | 0.763 | 0.718 | 0.659 | 0.866 | 0.973 | 0.788 | 0.9 | 0.725 | 0.878 | 0.767
16 | NCI-H1437 | 1.08 | 0.998 | 0.972 | 1.06 | 1.11 | 1.08 | 1.07 | 1.17 | 1.11 | 0.771 | 0.385 | 0.259 | 0.233 | 0.455 | 0.408 | 0.287 | 0.172 | 0.166 | 0.969 | 0.894
